Results: patent publication US12403151B2, “Compositions for use in the promotion of intestinal muscle growth and development and associated intestinal motility” (SOCIETE DES PRODUITS NESTLE S.A., priority 2017, dated 2025)
“Also recorded” adds a separate entry of the source.

Test system: muscle layer of the ileum
Assay: Thickness of the muscle layer of the ileum in young IUGR rats supplemented with HMOs
Format: in vivo, Sprague-Dawley rats
Settings: IUGR rat pups; 3 g/kg body weight HMO by gavage d7 to d21, then 4.5% HMO in diet d22 to d57 (mix: LNnT:2FL 1:2 by weight, 1.5% + 3%); sacrificed at day 57; H&E histology; compared with Normal and IUGR control groups
Text: Three groups of time-mated pregnant Sprague-Dawley female rats were bought from Charles River laboratories. One group was submitted to food restriction of 60% during the last 10 days of gestation and their offspring were cross-fostered to normally fed rats. A second group of pregnant females was normally fed and their offspring cross-fostered among the same group of dams. Immediately after birth (postnatal day 2 (d=2)), the born rat pups—subjects of the experiment—were assigned to one of the following groups: • Normal group (positive control): Normal-weight offspring born from unrestricted dams and fed after birth a normal non-supplemented diet; • IUGR group (negative control; n=20): IUGR rats being fed a normal diet after birth; • IUGR rats+HMO (test groups): During the experiment, they were reared by their mothers for 21 days and supplemented with HMOs (2-FL, LNnT or the Mix of 2-FL and LNnT). At weaning, they were fed a diet supplemented with the same HMOs, see details below. […]
Rats were sacrificed at day 57 after a 6-hr fasting period and samples of the small intestine were collected. The thickness of the muscle layer was measured on a sample of the ileum. […]

CC(=O)N[C@H]1[C@H](O[C@H]2[C@@H](O)[C@@H](CO)O[C@@H](O[C@H]3[C@H](O)[C@@H](O)C(O)O[C@@H]3CO)[C@@H]2O)O[C@H](CO)[C@@H](O[C@@H]2O[C@H](CO)[C@H](O)[C@H](O)[C@H]2O)[C@@H]1O (mixture of isomers) [LNnT, lacto-N-neotetraose]
thickness of the muscle layer of the ileum (mean per group, FIG. 1): successful in increasing the thickness; also recorded: increase of the ileum muscle thickness over both the Normal and the IUGR groups

2′-fucosyllactose [2FL, reference compound]
thickness of the muscle layer of the ileum (mean per group, FIG. 1): no increase in intestinal muscle thickness
